Legend:
Experiment in all cases: Test F preemergence test
Settings in all cases: scale 0 to 100
common purslane = type: in vivo, Portulaca oleracea
Excerpt: (§1) Seeds of plant species selected from bermudagrass (Cynodon dactylon), Surinam grass (Brachiaria decumbens), large crabgrass (Digitaria sanguinalis), green foxtail (Setaria viridis), goosegrass (Eleusine indica), johnsongrass (Sorghum halepense), kochia (Kochia scoparia), pitted morningglory (Ipomoea lacunosa), purple nutsedge (Cyperus rotundus), common ragweed (Ambrosia elation), mustard (Brassica nigra), guineagrass (Panicum maximum), […] (Paspalum dilatatum), barnyardgrass (Echinochloa crus-galli), southern sandbur (Cenchrus echinatus), common sowthistle (Sonchus oleraceous), prickly […] spinosa), Italian ryegrass (Lolium multiflorum), common purslane (Portulaca oleracea), broadleaf signalgrass (Brachiaria platyphylla), common groundsel (Senecio vulgaris), common chickweed (Stellaria media), Virginia dayflower (Commelina virginica), annual bluegrass (Poa annua), naked crabgrass (Digitaria nuda), […] cochinchinensis), quackgrass (Elytrigia repens), Canada horseweed (Conyza canadensis), field bindweed (Convolvulus arvensis), […] (Bidens bipinnata), common mallow (Malva sylvestris), Russian thistle (Salsola kali), and sugarcane (Saccharum officinarum) were planted and treated preemergence with test chemicals formulated in a non-phytotoxic solvent mixture which included a surfactant. At a different time, sugarcane was treated with postemergence applications of some of the test chemicals formulated in the same manner. Plants were approximately 3- to 4-leaf stage for the postemergence treatments. Treated plants and controls were maintained in a greenhouse for 14 to 21 days, after which time all species were compared to controls and visually evaluated. […] A dash (-) response means no test result.

itchgrass = type: in vivo, Rottboellia cochinchinensis
Excerpt: as §1

common groundsel = type: in vivo, Senecio vulgaris
Excerpt: as §1

field bindweed = type: in vivo, Convolvulus arvensis
Excerpt: as §1

large crabgrass = type: in vivo, Digitaria sanguinalis
Excerpt: as §1

annual bluegrass = type: in vivo, Poa annua
Excerpt: as §1

southern sandbur = type: in vivo, Cenchrus echinatus
Excerpt: as §1

green foxtail = type: in vivo, Setaria viridis
Excerpt: as §1

goosegrass = type: in vivo, Eleusine indica
Excerpt: as §1

johnsongrass = type: in vivo, Sorghum halepense
Excerpt: as §1

pitted morningglory = type: in vivo, Ipomoea lacunosa
Excerpt: as §1

purple nutsedge = type: in vivo, Cyperus rotundus
Excerpt: as §1

naked crabgrass = type: in vivo, Digitaria nuda
Excerpt: as §1

Italian ryegrass = type: in vivo, Lolium multiflorum
Excerpt: as §1

barnyardgrass = type: in vivo, Echinochloa crus-galli
Excerpt: as §1

common ragweed = type: in vivo, Ambrosia elation
Excerpt: as §1

## Cc1cc[n+]([O-])c([S+]([O-])Cc2c(C(F)(F)F)nn(C)c2OC(F)F)c1 (stereo not drawn) [Compound 1]
Common purslane; 8 g ai/ha, preemergence
  Plant response rating, Purslane: 0
Common purslane; 62 g ai/ha, Preemergence
  Purslane plant response rating: 80
Common purslane; Preemergence, 16 g ai/ha
  Plant response rating, Purslane: 35
Common purslane; Preemergence, 31 g ai/ha
  Plant response rating, Purslane: 60
itchgrass; 8 g ai/ha, preemergence
  Plant response rating, Itchgrass: 0
itchgrass; 62 g ai/ha, Preemergence
  Itchgrass plant response rating: 90
itchgrass; Preemergence, 16 g ai/ha
  Plant response rating, Itchgrass: 60
itchgrass; Preemergence, 31 g ai/ha
  Plant response rating, Itchgrass: 70
Common groundsel; 8 g ai/ha, preemergence
  Plant response rating, Groundsel: 0
Common groundsel; 62 g ai/ha, Preemergence
  Groundsel plant response rating: 35
Common groundsel; Preemergence, 16 g ai/ha
  Plant response rating, Groundsel: 20
Common groundsel; Preemergence, 31 g ai/ha
  Plant response rating, Groundsel: 35
Field bindweed; 8 g ai/ha, preemergence
  Plant response rating, Field Bindweed: 0
Field bindweed; 62 g ai/ha, Preemergence
  Field Bindweed plant response rating: 75
Field bindweed; Preemergence, 16 g ai/ha
  Plant response rating, Field Bindweed: 0
Field bindweed; Preemergence, 31 g ai/ha
  Plant response rating, Field Bindweed: 50
Large crabgrass; 8 g ai/ha, preemergence
  Plant response rating, Crabgrass, Large: 0
Large crabgrass; 62 g ai/ha, Preemergence
  Crabgrass, Large plant response rating: 95
Large crabgrass; Preemergence, 16 g ai/ha
  Plant response rating, Crabgrass, Large: 20
Large crabgrass; Preemergence, 31 g ai/ha
  Plant response rating, Crabgrass, Large: 70
Annual bluegrass; 8 g ai/ha, preemergence
  Plant response rating, Bluegrass: 0
Annual bluegrass; 62 g ai/ha, Preemergence
  Bluegrass plant response rating: 75
Annual bluegrass; Preemergence, 16 g ai/ha
  Plant response rating, Bluegrass: 0
Annual bluegrass; Preemergence, 31 g ai/ha
  Plant response rating, Bluegrass: 25
Southern sandbur; 8 g ai/ha, preemergence
  Plant response rating, Sandbur: 0
Southern sandbur; 16 g ai/ha, preemergence
  Plant response rating, Sandbur: 30
Southern sandbur; 62 g ai/ha, Preemergence
  Sandbur plant response rating: 80
Southern sandbur; Preemergence, 31 g ai/ha
  Plant response rating, Sandbur: 60
Green foxtail; 8 g ai/ha, preemergence
  Plant response rating, Foxtail, Green: 0
Green foxtail; 62 g ai/ha, Preemergence
  Foxtail, Green plant response rating: 100
Green foxtail; Preemergence, 16 g ai/ha
  Plant response rating, Foxtail, Green: 60
Green foxtail; Preemergence, 31 g ai/ha
  Plant response rating, Foxtail, Green: 80
goosegrass; 8 g ai/ha, preemergence
  Plant response rating, Goosegrass: 25
goosegrass; 62 g ai/ha, Preemergence
  Goosegrass plant response rating: 95
goosegrass; Preemergence, 16 g ai/ha
  Plant response rating, Goosegrass: 70
goosegrass; Preemergence, 31 g ai/ha
  Plant response rating, Goosegrass: 80
johnsongrass; 8 g ai/ha, preemergence
  Plant response rating, Johnsongrass: 35
johnsongrass; 62 g ai/ha, Preemergence
  Johnsongrass plant response rating: 90
johnsongrass; Preemergence, 16 g ai/ha
  Plant response rating, Johnsongrass: 70
johnsongrass; Preemergence, 31 g ai/ha
  Plant response rating, Johnsongrass: 90
Pitted morningglory; 8 g ai/ha, preemergence
  Plant response rating, Morningglory: 0
Pitted morningglory; 62 g ai/ha, Preemergence
  Morningglory plant response rating: 95
Pitted morningglory; Preemergence, 16 g ai/ha
  Plant response rating, Morningglory: 10
Pitted morningglory; Preemergence, 31 g ai/ha
  Plant response rating, Morningglory: 75
Purple nutsedge; 8 g ai/ha, preemergence
  Plant response rating, Purple Nutsedge: 0
Purple nutsedge; 62 g ai/ha, Preemergence
  Purple Nutsedge plant response rating: 60
Purple nutsedge; Preemergence, 16 g ai/ha
  Plant response rating, Purple Nutsedge: 0
Purple nutsedge; Preemergence, 31 g ai/ha
  Plant response rating, Purple Nutsedge: 60
Naked crabgrass; 8 g ai/ha, preemergence
  Plant response rating, Crabgrass, Naked: 0
Naked crabgrass; 62 g ai/ha, Preemergence
  Crabgrass, Naked plant response rating: 100
Naked crabgrass; Preemergence, 16 g ai/ha
  Plant response rating, Crabgrass, Naked: 15
Naked crabgrass; Preemergence, 31 g ai/ha
  Plant response rating, Crabgrass, Naked: 90
Italian ryegrass; 8 g ai/ha, preemergence
  Plant response rating, Ryegrass, Italian: 0
Italian ryegrass; 62 g ai/ha, Preemergence
  Ryegrass, Italian plant response rating: 90
Italian ryegrass; Preemergence, 16 g ai/ha
  Plant response rating, Ryegrass, Italian: 0
Italian ryegrass; Preemergence, 31 g ai/ha
  Plant response rating, Ryegrass, Italian: 60
barnyardgrass; 8 g ai/ha, preemergence
  Plant response rating, Barnyardgrass: 5
barnyardgrass; 62 g ai/ha, Preemergence
  Barnyardgrass plant response rating: 90
barnyardgrass; Preemergence, 16 g ai/ha
  Plant response rating, Barnyardgrass: 60
barnyardgrass; Preemergence, 31 g ai/ha
  Plant response rating, Barnyardgrass: 80

## Cn1nc(C(F)(F)F)c(CS(=O)(=O)c2cccc[n+]2[O-])c1OCC(F)(F)F [Compound 29]
Common purslane; 62 g ai/ha, Preemergence
  Purslane plant response rating: 30
Common purslane; 125 g ai/ha, preemergence
  Purslane plant response rating: 30
Common purslane; Preemergence, 16 g ai/ha
  Plant response rating, Purslane: 0
Common purslane; Preemergence, 31 g ai/ha
  Plant response rating, Purslane: 0
itchgrass; 62 g ai/ha, Preemergence
  Itchgrass plant response rating: 75
itchgrass; 125 g ai/ha, preemergence
  Itchgrass plant response rating: 95
itchgrass; Preemergence, 16 g ai/ha
  Plant response rating, Itchgrass: 0
itchgrass; Preemergence, 31 g ai/ha
  Plant response rating, Itchgrass: 30
Field bindweed; 62 g ai/ha, Preemergence
  Field Bindweed plant response rating: 0
Field bindweed; 125 g ai/ha, preemergence
  Field Bindweed plant response rating: 0
Field bindweed; Preemergence, 16 g ai/ha
  Plant response rating, Field Bindweed: 0
Field bindweed; Preemergence, 31 g ai/ha
  Plant response rating, Field Bindweed: 0
Large crabgrass; 62 g ai/ha, Preemergence
  Crabgrass, Large plant response rating: 95
Large crabgrass; 125 g ai/ha, preemergence
  Crabgrass, Large plant response rating: 100
Large crabgrass; Preemergence, 16 g ai/ha
  Plant response rating, Crabgrass, Large: 15
Large crabgrass; Preemergence, 31 g ai/ha
  Plant response rating, Crabgrass, Large: 95
Annual bluegrass; 62 g ai/ha, Preemergence
  Bluegrass plant response rating: 98
Annual bluegrass; 125 g ai/ha, preemergence
  Bluegrass plant response rating: 100
Annual bluegrass; Preemergence, 16 g ai/ha
  Plant response rating, Bluegrass: 20
Annual bluegrass; Preemergence, 31 g ai/ha
  Plant response rating, Bluegrass: 75
Southern sandbur; 62 g ai/ha, Preemergence
  Sandbur plant response rating: 100
Southern sandbur; 125 g ai/ha, preemergence
  Sandbur plant response rating: 100
Southern sandbur; Preemergence, 31 g ai/ha
  Plant response rating, Sandbur: 100
Green foxtail; 62 g ai/ha, Preemergence
  Foxtail, Green plant response rating: 100
Green foxtail; 125 g ai/ha, preemergence
  Foxtail, Green plant response rating: 100
Green foxtail; Preemergence, 16 g ai/ha
  Plant response rating, Foxtail, Green: 25
Green foxtail; Preemergence, 31 g ai/ha
  Plant response rating, Foxtail, Green: 75
goosegrass; 62 g ai/ha, Preemergence
  Goosegrass plant response rating: 100
goosegrass; 125 g ai/ha, preemergence
  Goosegrass plant response rating: 100
goosegrass; Preemergence, 16 g ai/ha
  Plant response rating, Goosegrass: 65
goosegrass; Preemergence, 31 g ai/ha
  Plant response rating, Goosegrass: 100
johnsongrass; 62 g ai/ha, Preemergence
  Johnsongrass plant response rating: 100
johnsongrass; 125 g ai/ha, preemergence
  Johnsongrass plant response rating: 100
johnsongrass; Preemergence, 16 g ai/ha
  Plant response rating, Johnsongrass: 70
johnsongrass; Preemergence, 31 g ai/ha
  Plant response rating, Johnsongrass: 100
Pitted morningglory; 62 g ai/ha, Preemergence
  Morningglory plant response rating: 60
Pitted morningglory; 125 g ai/ha, preemergence
  Morningglory plant response rating: 80
Pitted morningglory; Preemergence, 16 g ai/ha
  Plant response rating, Morningglory: 0
Pitted morningglory; Preemergence, 31 g ai/ha
  Plant response rating, Morningglory: 0
Purple nutsedge; 125 g ai/ha, preemergence
  Purple Nutsedge plant response rating: 75
Purple nutsedge; Preemergence, 16 g ai/ha
  Plant response rating, Purple Nutsedge: 20
Purple nutsedge; Preemergence, 31 g ai/ha
  Plant response rating, Purple Nutsedge: 35
Naked crabgrass; 62 g ai/ha, Preemergence
  Crabgrass, Naked plant response rating: 100
Naked crabgrass; 125 g ai/ha, preemergence
  Crabgrass, Naked plant response rating: 100
Naked crabgrass; Preemergence, 31 g ai/ha
  Plant response rating, Crabgrass, Naked: 80
Italian ryegrass; 62 g ai/ha, Preemergence
  Ryegrass, Italian plant response rating: 100
Italian ryegrass; 125 g ai/ha, preemergence
  Ryegrass, Italian plant response rating: 100
Italian ryegrass; Preemergence, 16 g ai/ha
  Plant response rating, Ryegrass, Italian: 65
Italian ryegrass; Preemergence, 31 g ai/ha
  Plant response rating, Ryegrass, Italian: 100
barnyardgrass; 62 g ai/ha, Preemergence
  Barnyardgrass plant response rating: 100
barnyardgrass; 125 g ai/ha, preemergence
  Barnyardgrass plant response rating: 100
barnyardgrass; Preemergence, 16 g ai/ha
  Plant response rating, Barnyardgrass: 50
barnyardgrass; Preemergence, 31 g ai/ha
  Plant response rating, Barnyardgrass: 100
Common ragweed; 62 g ai/ha, Preemergence
  Ragweed plant response rating: 70
Common ragweed; 125 g ai/ha, preemergence
  Ragweed plant response rating: 80
Common ragweed; Preemergence, 16 g ai/ha
  Plant response rating, Ragweed: 0
Common ragweed; Preemergence, 31 g ai/ha
  Plant response rating, Ragweed: 40

— US20100298141A1, “SUBSTITUTED PYRIDINE N-OXIDE HERBICIDES” (E. I. DU PONT DE NEMOURS AND COMPANY, priority 2007, published 2010)
